Legend:
[1] = log P by HPLC (OECD Guideline 117), method [b] neutral range; type: physicochemical; conditions: HPLC; for logP[b]: method [b] neutral range; for chromatographic logP: reversed-phase C18 HPLC column, neutral range, pH 7.8
Description: (§1) The log P values were determined analogously to OECD Guideline 117 (EC Directive 92/69/EEC) by HPLC (high-performance liquid chromatography) using reversed-phase columns (C 18), by the following methods:
[b] The LC-MS determination in the neutral range is effected at pH 7.8 with 0.001 molar aqueous ammonium hydrogencarbonate solution and acetonitrile as eluents; linear gradient from 10% acetonitrile to 95% acetonitrile.

Tetranychus urticae = Tetranychus urticae spray test, OP-resistant (TETRUR); type: in vivo; conditions: after 6 days; for pest or weed control at 500 g/ha: Tetranychus urticae, 144 h, read-out: efficacy
Description: Tetranychus urticae—Spray Test, OP-Resistant (TETRUR)
• Solvent: 78.0 parts by weight of acetone • 1.5 parts by weight of dimethylformamide • Emulsifier: 0.5 part by weight of alkylaryl polyglycol ether
To produce an appropriate active ingredient formulation, 1 part by weight of active ingredient is mixed with the specified amounts of solvent and emulsifier, and the concentrate is diluted to the desired concentration with emulsifier-containing water.
Discs of bean leaves (Phaseolus vulgaris) infested by all stages of the greenhouse red spider mite (Tetranychus urticae) are sprayed with an active ingredient formulation of the desired concentration.
After 6 days, the efficacy in % is determined 100% means that all the spider mites have been killed; 0% means that none of the spider mites have been killed.

[2] = log P by HPLC (OECD Guideline 117), method [a] acidic range; type: physicochemical; conditions: for logP[a]: HPLC, method [a] acidic range; for chromatographic logP: reversed-phase C18 HPLC column, acidic range
Description: as §1
[a] The LC-MS determination in the acidic range is effected at pH 2.7 with 0.1% aqueous formic acid and acetonitrile (contains 0.1% formic acid) as eluents; linear gradient from 10% acetonitrile to 95% acetonitrile.

[3] = pH 2.7, HPLC method [a], read-out: logP[a]
[4] = pH 2.7, HPLC, pH 2.7, read-out: log P[a]

| Structure (SMILES) | logP[b] [1] | efficacy (Tetranychus urticae; application rate of 500 g/ha) [%] | logP[a] [2] | chromatographic logP [1] | pest or weed control at 500 g/ha (Tetranychus urticae; application rate of 500 g/ha) [%] | chromatographic logP [2, 3] | chromatographic logP [2, 4] | efficacy (Tetranychus urticae; application rate of 100 g/ha) [%] |
| --- | --- | --- | --- | --- | --- | --- | --- | --- |
| C=C(C)CCOc1nn(-c2cc(SCC(F)(F)F)c(C)cc2F)c(=O)n1C1CC1 [Example 136] | 4.33 | 90 | 4.37 | – | – | – | – | – |
| Cc1cc(F)c(-n2nc(OC3CCCCC3)n(C)c2=O)cc1[S+]([O-])CC(F)(F)F (stereo not shown) [Example 164] | 3.22 | 90 | 3.29 | – | – | – | – | – |
| Cc1cc(F)c(-n2nc(C3CCC3)n(C3CC3)c2=O)cc1[S+]([O-])CC(F)(F)F (racemic) [Example 88] | 2.66 | 100 | 2.72 | – | – | – | – | – |
| Cc1cc(F)c(-n2nc(OCc3ccccc3)n(C3CC3)c2=O)cc1SCC(F)(F)F [Example 410] | 4.25 | 100 | 4.32 | – | – | – | – | – |
| Cc1ccc(-n2nc(OCC(C)(C)C)n(C)c2=O)cc1[S+]([O-])CC(F)(F)F (stereo not shown) [Example 162] | 3.57 | 90 | 3.67 | – | – | – | – | – |
| Cc1cc(C)c([S+]([O-])CC(F)(F)F)cc1-n1ncn(Cc2ccccc2)c1=O (stereo not shown) [Example 374] | 2.47 | 90 | 2.50 | – | – | – | – | – |
| Cc1cc(F)c(-n2nnn(-c3ccc(Cl)cc3)c2=O)cc1SCC(F)(F)F [Example 306, 1-(4-Chlorophenyl)-4-{2-fluoro-4-methyl-5-[(2,2,2-trifluoroethyl)sulphanyl]phenyl}-1,4-dihydro-5H-tetrazol-5-one] | – | – | – | 4.59 | 100 | 4.75 | 4.75 | – |
| COc1cc(F)c(-n2nc(OCC(C)(C)C)n(C3CC3)c2=O)cc1SCC(F)(F)F [Example 395] | 4.32 | 100 | 4.38 | – | – | – | – | – |
| Cc1ccc(-n2nc(OC(C)C)n(C3CC3)c2=O)cc1SCC(F)(F)F [Example 91] | 4.54 | 100 | 4.59 | – | – | – | – | – |
| CCCOc1nn(-c2cc([S+]([O-])CC(F)(F)F)c(C)cc2F)c(=O)n1C (stereo not shown) [Example 132] | 2.47 | 100 | 2.52 | – | – | – | – | – |
| Cc1cc(F)c(-n2nc(C(F)(F)F)n(N)c2=O)cc1SCC(F)(F)F [Example 205] | 3.08 | 100 | 3.15 | – | – | – | – | – |
| Cc1cc(F)c(-n2nc(CCOC(C)C)n(C3CC3)c2=O)cc1SCC(F)(F)F [Example 359] | 3.66 | 100 | 3.63 | – | – | – | – | – |
| Cc1cc(F)c(-n2nc(SCC(F)(F)F)n(C3CC3)c2=O)cc1[S+]([O-])CC(F)(F)F (stereo not shown) [Example 255] | 2.89 | 100 | 2.93 | – | – | – | – | – |
| C=CCn1c(OCC(F)(F)F)nn(-c2cc([S+]([O-])CC(F)(F)F)c(C)cc2F)c1=O (stereo not shown) [Example 407] | 2.90 | 90 | 2.94 | – | – | – | – | – |
| Cc1cc(F)c(-n2ncn(Cc3ccccc3)c2=O)cc1SCC(F)(F)F [Example 368] | 3.34 | 100 | 3.38 | – | – | – | – | – |
| COC1=CC(=O)N(c2cc(SCC(F)(F)F)c(C)cc2F)C1 [Example 310, 1-{2-Fluoro-4-methyl-5-[(2,2,2-trifluoroethyl)sulphanyl]phenyl}-4-methoxy-1,5-dihydro-2H-pyrrol-2-one] | – | – | – | 2.81 | 100 | 2.87 | 2.87 | – |
| COc1nn(-c2cc([S+]([O-])CC(F)(F)F)c(F)cc2F)c(=O)n1C (stereo not shown) [Example 169] | 1.77 | 90 | 1.81 | – | – | – | – | – |
| Cc1cc(F)c(-n2nc(C3CCCC3)n(C3CC3)c2=S)cc1SCC(F)(F)F [Example 497, 5-Cyclopentyl-4-cyclopropyl-2-{2-fluoro-4-methyl-5-[(2,2,2-trifluoroethyl)sulphanyl]-phenyl}-2,4-dihydro-3H-1,2,4-triazole-3-thione] | – | – | – | 4.57 | 90 | 4.68 | 4.68 | – |
| CCn1c(S(C)(=O)=O)nn(-c2cc([S+]([O-])CC(F)(F)F)c(C)cc2F)c1=O (stereo not shown) [Example 422] | 2.11 | 100 | 2.12 | – | – | – | – | – |
| Cc1cc(F)c(-n2nc(Br)n(C)c2=O)cc1[S+]([O-])CC(F)(F)F (stereo not shown) [Example 433] | 1.99 | 100 | 2.02 | – | – | – | – | – |
| Cc1cc(F)c(-n2nc(C(F)(F)F)n(CC(F)(F)F)c2=O)cc1SCC(F)(F)F [Example 55] | 4.11 | 90 | 4.22 | – | – | – | – | – |
| Cc1ccc(-n2nnn(C)c2=O)cc1SCC(F)(F)F [Example 296] | 3.04 | 90 | 3.07 | – | – | – | – | – |

| Structure (SMILES) | logP[b] [1] | efficacy (Tetranychus urticae; application rate of 500 g/ha) [%] | logP[a] [2] | chromatographic logP [1] | pest or weed control at 500 g/ha (Tetranychus urticae; application rate of 500 g/ha) [%] | chromatographic logP [2, 3] | chromatographic logP [2, 4] | efficacy (Tetranychus urticae; application rate of 100 g/ha) [%] |
| --- | --- | --- | --- | --- | --- | --- | --- | --- |
| Cc1cc(F)c(-n2nc(C3CCCC3)n(C3CC3)c2=O)cc1SCC(F)(F)F [Example 358, 5-Cyclopentyl-4-cyclopropyl-2-{2-fluoro-4-methyl-5-[(2,2,2-trifluoroethyl)sulphanyl]phenyl}-2,4-dihydro-3H-1,2,4-triazol-3-one] | – | – | – | 4.2 | 100 | 4.18 | 4.18 | – |
| Cc1cc(F)c(-n2nc(Br)n(C(C)(C)C)c2=O)cc1[S+]([O-])CC(F)(F)F (stereo not shown) [Example 441] | 2.98 | 100 | 3.02 | – | – | – | – | – |
| Cc1cc(F)c(-n2nc(CC(C)C)n(C3CC3)c2=O)cc1SCC(F)(F)F [Example 83] | 3.93 | 100 | 3.99 | – | – | – | – | – |
| Cc1cc(F)c(-n2ncn(C(C)(C)C)c2=O)cc1SCC(F)(F)F [Example 367] | 3.23 | 100 | 3.27 | – | – | – | – | – |
| COc1nn(-c2cc([S+]([O-])CC(F)(F)F)c(C)cc2F)c(=O)n1C(C)C (stereo not shown) [Example 413] | 2.40 | 90 | 2.44 | – | – | – | – | – |
| Cc1cc(F)c(-n2nc(OCc3ccccc3)n(C)c2=O)cc1[S+]([O-])CC(F)(F)F (stereo not shown) [Example 177] | 2.85 | – | 2.92 | – | – | – | – | 100 |
| Cc1cc(F)c(-n2ncn(C3CC3)c2=O)cc1[S+]([O-])CC(F)(F)F (racemic) [Example 62] | 1.69 | – | 1.69 | – | – | – | – | 100 |
| C=C(C)CCOc1nn(-c2cc([S+]([O-])CC(F)(F)F)c(C)cc2F)c(=O)n1C1CC1 (stereo not shown) [Example 137] | 3.17 | 90 | 3.25 | – | – | – | – | – |
| COc1nn(-c2cc(SCC(F)(F)F)c(Br)cc2F)c(=O)n1C [Example 175] | 2.98 | – | 3.04 | – | – | – | – | 100 |
| Cc1cc(F)c(-n2nc(Br)n(C3CC3)c2=O)cc1SCC(F)(F)F [Example 294] | 3.38 | 100 | 3.48 | – | – | – | – | – |
| Cc1cc(F)c(-n2nc([S+](C)[O-])n(C)c2=O)cc1SCC(F)(F)F (stereo not shown) [Example 232] | 2.21 | 90 | 2.25 | – | – | – | – | – |
| Cc1cc(F)c(-n2nc(OCC(C)(C)C)n(C3CC3)c2=O)cc1[S+]([O-])CC(F)(F)F (racemic) [Example 387] | 3.52 | 90 | 3.60 | – | – | – | – | – |
| CCCc1nn(-c2cc(SCC(F)(F)F)c(C)cc2F)c(=O)o1 [Example 460] | 3.92 | 100 | 3.94 | – | – | – | – | – |
| Cc1cc(F)c(-n2nc(C3CC3)n(N)c2=O)cc1SCC(F)(F)F [Example 196] | 2.61 | 100 | 2.67 | – | – | – | – | – |
| CNn1c(N(C)C)nn(-c2cc([S+]([O-])CC(F)(F)F)c(C)cc2F)c1=O (stereo not shown) [Example 217] | 1.98 | 90 | 2.02 | – | – | – | – | – |
| CCC(C)c1nn(-c2cc([S+]([O-])CC(F)(F)F)c(C)cc2F)c(=O)n1C1CC1 (racemic) [Example 86] | 2.79 | 100 | 2.86 | – | – | – | – | – |
| Cc1cc(F)c(-n2nc(SCC(F)(F)F)n(C)c2=O)cc1SCC(F)(F)F [Example 281] | 3.45 | 100 | 3.53 | – | – | – | – | – |
| Cc1cc(F)c(-n2nc(C(C)(C)C)oc2=O)cc1[S+]([O-])CC(F)(F)F (racemic) [Example 452] | 3.09 | 100 | 3.10 | – | – | – | – | – |
| Cc1cc(F)c(-n2nc(C3CCCCC3)n(C3CC3)c2=S)cc1SCC(F)(F)F [Example 496] | 4.88 | 90 | 5.00 | – | – | – | – | – |
| C=CCn1c(C(F)(F)F)nn(-c2cc([S+]([O-])CC(F)(F)F)c(C)cc2F)c1=O (stereo not shown) [Example 364] | 2.96 | 90 | 3.00 | – | – | – | – | – |
| Cc1cc(Cl)c(-n2nc(OCC(F)(F)F)n(C3CC3)c2=O)cc1SCC(F)(F)F [Example 187] | 3.93 | 90 | 3.98 | – | – | – | – | – |

Reference: US9981940B2, “Aryl sulfide derivatives and aryl sulfoxide derivatives as acaricides and insecticides” (BAYER CROPSCIENCE AKTIENGESELLSCHAFT, priority 2013, dated 2018)
